Experimental data taken from ChEMBL document CHEMBL2424533, “Design and regioselective synthesis of trifluoromethylquinolone derivatives as potent antimicrobial agents” (2013).
Converted amounts (≈) assume the structure as drawn. The source made the active and inactive calls. The rule behind the calls is not given here.

Key:
Salmonella typhimurium [1] = assay: Antimicrobial activity against Salmonella typhimurium MTCC 3732 after 12 hrs by well diffusion method; assay type: functional, Salmonella enterica subsp. enterica serovar Typhimurium; conditions: Salmonella enterica, MTCC 3732, 12 h
Pseudomonas aeruginosa [2] = assay: Antimicrobial activity against Pseudomonas aeruginosa MTCC 4673 after 12 hrs by well diffusion method; assay type: functional; conditions: MTCC 4673, 12 h
[3] = test system: Mycolicibacterium smegmatis; assay: Antimicrobial activity against Mycobacterium smegmatis MTCC 943 after 12 hrs by well diffusion method; assay type: functional; conditions: MTCC 943, 12 h
Staphylococcus aureus [4] = assay: Antimicrobial activity against Staphylococcus aureus MTCC 3160 after 12 hrs by well diffusion method; assay type: functional; conditions: MTCC 3160, 12 h
Salmonella typhimurium [5] = assay: Antimicrobial activity against Salmonella typhimurium MTCC 3732 at 100 ug/mL after 12 hrs by well diffusion method; assay type: functional, Salmonella enterica subsp. enterica serovar Typhimurium; conditions: for zone of inhibition at 100 µg/mL: Salmonella enterica, MTCC 3732, 12 h, read-out: DIZ
Salmonella typhimurium [6] = assay: Antimicrobial activity against Salmonella typhimurium MTCC 3732 at 50 ug/mL after 12 hrs by well diffusion method; assay type: functional, Salmonella enterica subsp. enterica serovar Typhimurium; conditions: for zone of inhibition at 50 µg/mL: Salmonella enterica, MTCC 3732, 12 h, read-out: DIZ
Pseudomonas aeruginosa [7] = assay: Antimicrobial activity against Pseudomonas aeruginosa MTCC 4673 at 100 ug/mL after 12 hrs by well diffusion method; assay type: functional; conditions: MTCC 4673, 12 h, read-out: DIZ
Pseudomonas aeruginosa [8] = assay: Antimicrobial activity against Pseudomonas aeruginosa MTCC 4673 at 50 ug/mL after 12 hrs by well diffusion method; assay type: functional; conditions: MTCC 4673, 12 h, read-out: DIZ
[9] = test system: Mycolicibacterium smegmatis; assay: Antimicrobial activity against Mycobacterium smegmatis MTCC 943 at 100 ug/mL after 12 hrs by well diffusion method; assay type: functional; conditions: for zone of inhibition at 100 µg/mL: MTCC 943, 12 h, read-out: DIZ
[10] = test system: Mycolicibacterium smegmatis; assay: Antimicrobial activity against Mycobacterium smegmatis MTCC 943 at 50 ug/mL after 12 hrs by well diffusion method; assay type: functional; conditions: MTCC 943, 12 h, read-out: DIZ
Staphylococcus aureus [11] = assay: Antimicrobial activity against Staphylococcus aureus MTCC 3160 at 100 ug/mL after 12 hrs by well diffusion method; assay type: functional
Staphylococcus aureus [12] = assay: microbe, parasite or virus in culture; conditions: MTCC 3160, 12 h, read-out: DIZ
Description: (§1) Antimicrobial activity against Staphylococcus aureus MTCC 3160 at 50 ug/mL after 12 hrs by well diffusion method

Candida albicans [13] = assay: Antimicrobial activity against Candida albicans MTCC 183 after 12 hrs by well diffusion method; assay type: functional; conditions: MTCC 183, 12 h
Penicillium chrysogenum = assay: Antimicrobial activity against Penicillium chrysogenum MTCC 6795 at 50 to 100 ug/mL after 48 hrs by well diffusion method; assay type: functional, organism-based
Candida albicans [14] = assay: Antimicrobial activity against Candida albicans MTCC 183 at 100 ug/mL after 12 hrs by well diffusion method; assay type: functional
Candida albicans [15] = assay: Antimicrobial activity against Candida albicans MTCC 183 at 50 ug/mL after 12 hrs by well diffusion method; assay type: functional
Staphylococcus aureus [16] = conditions: MTCC 3160, 50 ug/mL
Description: as §1

[17] = Salmonella enterica subsp. enterica serovar Typhimurium

Row | MIC (Salmonella typhimurium [1]) | MIC (Pseudomonas aeruginosa [2]) | MIC [3] | MIC (Staphylococcus aureus [4]) | MIC (Candida albicans [13]) | SMILES | zone of inhibition at 100 µg/mL (Salmonella typhimurium [5]) | zone of inhibition at 50 µg/mL (Salmonella typhimurium [6]) | zone of inhibition at 100 µg/mL (Pseudomonas aeruginosa [7]) | zone of inhibition at 50 µg/mL (Pseudomonas aeruginosa [8]) | zone of inhibition at 100 µg/mL [9] | zone of inhibition at 50 µg/mL [10] | Activity (Penicillium chrysogenum) | diameter of the inhibition zone (DIZ) (Candida albicans [14]) | diameter of the inhibition zone (DIZ) (Candida albicans [15]) | diameter of the inhibition zone (DIZ) (Staphylococcus aureus [11]) | DIZ (Staphylococcus aureus [16]) | further results
1 | > 100 µg/mL | 25 µg/mL (≈ 64.7 µM) | 25 µg/mL (≈ 64.7 µM) | > 100 µg/mL | > 100 µg/mL | N#Cc1ccc(Cn2cc(C(=O)NN)c(=O)c3ccc(C(F)(F)F)cc32)cc1 | – | – | 8 mm | 8 mm | 8 mm | 8 mm | inactive | inactive | inactive | inactive | inactive | diameter of the inhibition zone (DIZ) (Salmonella typhimurium [5]; [17]): inactive; diameter of the inhibition zone (DIZ) (Salmonella typhimurium [6]; [17]): inactive
2 | 25 µg/mL (≈ 80.8 µM) | 25 µg/mL (≈ 80.8 µM) | 25 µg/mL (≈ 80.8 µM) | 100 µg/mL (≈ 323 µM) | > 100 µg/mL | C#CCn1cc(C(=O)NN)c(=O)c2ccc(C(F)(F)F)cc21 | 8 mm | 7.6 mm | 8 mm | 8 mm | 8 mm | 8 mm | inactive | inactive | inactive | inactive | inactive | –
3 | 50 µg/mL (≈ 125 µM) | 25 µg/mL (≈ 62.4 µM) | 50 µg/mL (≈ 125 µM) | > 100 µg/mL | > 100 µg/mL | CCOC(=O)c1cn(Cc2ccc(C#N)cc2)c2cc(C(F)(F)F)ccc2c1=O | 8 mm | 7.3 mm | 8 mm | 8 mm | – | 7 mm | inactive | inactive | inactive | inactive | inactive | diameter of the inhibition zone (DIZ) [9]: inactive

Row | SMILES | MIC (Salmonella typhimurium [1]) | MIC (Pseudomonas aeruginosa [2]) | MIC [3] | MIC (Staphylococcus aureus [4]) | MIC (Candida albicans [13]) | zone of inhibition at 100 µg/mL (Salmonella typhimurium [5]) | zone of inhibition at 50 µg/mL (Salmonella typhimurium [6]) | zone of inhibition at 100 µg/mL (Pseudomonas aeruginosa [7]) | zone of inhibition at 50 µg/mL (Pseudomonas aeruginosa [8]) | zone of inhibition at 100 µg/mL [9] | zone of inhibition at 50 µg/mL [10] | Activity (Penicillium chrysogenum) | diameter of the inhibition zone (DIZ) (Candida albicans [14]) | diameter of the inhibition zone (DIZ) (Candida albicans [15]) | diameter of the inhibition zone (DIZ) (Staphylococcus aureus [11]) | DIZ (Staphylococcus aureus [16]) | further results
4 | O=C(O)c1cn(C2CC2)c2cc(N3CCNCC3)c(F)cc2c1=O [CIPROFLOXACIN] | < 5 µg/mL | < 5 µg/mL | < 5 µg/mL | < 5 µg/mL | – | 37 mm | 37 mm | 30 mm | 26.6 mm | 30 mm | 29 mm | – | – | – | – | – | zone of inhibition at 100 µg/mL (Staphylococcus aureus [11]; MTCC 3160, 12 h, read-out: DIZ): 13 mm; zone of inhibition at 50 µg/mL (Staphylococcus aureus [12]): 13 mm
